Assay results from patent publication US4379091A, “Esters of arylpropionic acids endowed with an anti-inflammatory activity” (priority 1980, dated 1983).

Legend:
carrageenin edema [1] = assay: carrageenin edema test in the rat (percent protection); format: in vivo, rat (Wistar); settings: for peak of activity (time) / time course of activity after the peak: carrageenin edema; for peak of activity (time) / time course of activity after the peak / Percent protection from the carrageenin edema: oral; for Percent protection from the carrageenin edema: detection after 4 hours, ibuprofen 100 mg/kg, MR-653 200 mg/kg (equimolar)
Description: 1 percent carrageenin in saline was given, at the rate of 0.1 ml subcutaneously, into the plantar area of the left paw.
The compounds were administered 1, 3 and 6 hours respectively before the carrageenin injection; the related values were always read 4 hours after the carrageenin injection, duly assessing the percent swelling of the paw versus the value at the time 0 (carrageenin inocula). The results are expressed as percent protection considering the swelling in the control group as equal to 100.

carrageenin edema [2] = assay: as above; format: in vivo, rat (Wistar); settings: oral, ibuprofen 100 mg/kg, MR-653 200 mg/kg (equimolar)
gastric mucosa = assay: gastric injuring effects; format: in vivo, Wistar rats
Description: The compounds were given intraperitoneally at the equimolar dose of 500 mg/kg. The animals were killed 5 hours after the treatment in order to assess the conditions of the gastric mucosa, and the possible presence of bleedings and ulcers.

[3] = plasma kinetics of ibuprofen and MR-653 in the male rat
Text: The investigational drugs were given by oral gavage, suspended in 0.5 percent gum arabic; an analogous suspension was used in the case of the intraperitoneal administration.

[4] = tested on: abdominal squirmings (phenylquinone); assay: analgesic activity: abdominal squirmings induced by phenylquinone; format: in vivo; settings: oral, 100 mg/kg (equimolar doses), one hour before; 20 minutes observation
Description: Abdominal squirmings were induced by an intraperitoneal injection in saline, given at the dose of 4 mg/kg/20 ml.

[5] = tested on: squirmings (acetylcholine); assay: acetylcholine test: squirmings induced by acetylcholine; format: in vivo, mouse; settings: oral, one hour before acetylcholine, equimolar doses; 4 minutes observation
Description: Squirmings were induced by an intraperitoneal injection of acetylcholine ([…]; 0.5 ml per mouse); both compounds were given orally one hour before the administration of acetylcholine at the dose of 10 mg/kg, in equimolar doses. […] The results reported below were obtained in comparison with the control group: […]

solubility = format: physicochemical
[6] = acute toxicity, oral LD 50 in the mouse; format: in vivo; settings: in vivo; mouse, oral
mouse = assay: acute toxicity, oral LD 50 in the mouse; format: in vivo; settings: versus the corresponding acid (ibuprofen for MR-653)
[7] = intraperitoneal, equimolar dose of 500 mg/kg, 5 hours after treatment

| Structure (SMILES) | peak of activity (time) (carrageenin edema [1]; equimolar doses) | time course of activity after the peak (carrageenin edema [1]; equimolar doses) | Percent protection from the carrageenin edema (carrageenin edema [1]) [%] | Percent protection from the carrageenin edema (carrageenin edema [2]; detection after 1 hour) [%] | Percent protection from the carrageenin edema (carrageenin edema [2]; detection after 2 hours) [%] | Percent protection from the carrageenin edema (carrageenin edema [2]; detection after 3 hours) [%] | Percent protection from the carrageenin edema (carrageenin edema [2]; detection after 6 hours) [%] | incidence of punctiform ulcer (gastric mucosa; [7]) [%] | protection versus the control group (phenylquinone squirming) [4] [%] | protection versus control group (acetylcholine squirming) [5] [%] | other results |
| --- | --- | --- | --- | --- | --- | --- | --- | --- | --- | --- | --- |
| CC(C)Cc1ccc(C(C)C(=O)O)cc1 (stereo not drawn) [Ibuprofen, 2-(4-isobutyl-phenyl) propionic acid] | around the first hour | rapid and progressive decrease even starting from the second hour | 24 | 60 | 44 | 28 | 20 | 14 | 20 | 50 | condition of stomach / peritoneum (gastric mucosa; rat, in vivo, ip, 500 mg/kg): almost normal mucosa with a fair quantity of a yellowish foamy secretion; time of peak of the plasma levels of ibuprofen ([3]; plasma kinetics, oral): at the first hour; AUC at 7 h ([3]; rat, in vivo, ip, 58.8 mg/kg): ~325 µg·h/mL; concentration at 0.5 h ([3]; rat, in vivo, ip, 58.8 mg/kg): 215000 ± 33400 ng/mL; concentration at 1 h ([3]; rat, in vivo, ip, 58.8 mg/kg): 105000 ± 12400 ng/mL; concentration at 2 h ([3]; rat, in vivo, ip, 58.8 mg/kg): 18300 ± 11000 ng/mL; concentration at 7 h ([3]; rat, in vivo, ip, 58.8 mg/kg): 6200 ± 2400 ng/mL; AUC at 7 h ([3]; rat, in vivo, po, 58.8 mg/kg): ~190 µg·h/mL; concentration at 1 h ([3]; rat, in vivo, po, 58.8 mg/kg): 71700 ± 23600 ng/mL; concentration at 2 h ([3]; rat, in vivo, po, 58.8 mg/kg): 32200 ± 7700 ng/mL; concentration at 5 h ([3]; rat, in vivo, po, 58.8 mg/kg): 12100 ± 22000 ng/mL; concentration at 7 h ([3]; rat, in vivo, po, 58.8 mg/kg): 9100 ± 1500 ng/mL |
| CC(C)Cc1ccc(C(C)C(=O)OCCOCCOCCOCCO)cc1 (stereo not drawn) [MR-653, Monoester of 2-(4-isobutyl-phenyl)propionic acid with tetraethylene glycol] | around the first hour | markedly slower | 44 | 64 | 59 | 47 | 34 | 16 | 20 | 48 | solubility in organic solvents (solubility; methanol, diethyl ether, acetone and chloroform): soluble on the other hand in methanol, diethyl ether, acetone and chloroform; solubility in water (solubility; water): practically insoluble in water; anti-inflammatory activity higher than that of ibuprofen until the 6th hour (carrageenin edema [1]; equimolar doses, versus ibuprofen): 48%; condition of stomach / peritoneum (gastric mucosa; [7]): mildly hyperemic peritoneal exudate; gastric injuring effects compared with the corresponding acid (gastric mucosa; versus the corresponding acid (ibuprofen for MR-653)): practically unchanged values of toxicity and gastric injuring effects; LD50 [6]: > 2000 mg/kg; toxicity compared with the corresponding acid (mouse): practically unchanged values of toxicity and gastric injuring effects |
